US20160101148A1, “TREATMENT AND PREVENTION OF BACTERIAL SKIN INFECTIONS USING ORITAVANCIN” (priority 2013, published 2016)

How the values were obtained:
[1] = system: ABSSSI caused by susceptible gram-positive bacteria, including MRSA; experiment: SOLO II Phase 3 trial, efficacy; type: in vivo, human
Source text: Complete results were obtained from a phase 3 clinical trial program of oritavancin (SOLO), which investigated the drug for the treatment of acute bacterial skin and skin structure infections (ABSSSI) caused by susceptible gram-positive bacteria, including methicillin-resistant Staphylococcus aureus (MRSA). SOLO I and SOLO II clinical trials were identical multicenter, double-blind, randomized clinical trials.
In SOLO II, all protocol-specified primary and secondary efficacy endpoints were met. […] The efficacy was similar in the overall population and in those patients with microbiologically confirmed MRSA infections.

[2] = system: S. aureus strains (14 mecC MRSA, 2 mecA MRSA, ATCC 29213 MSSA); experiment: In vitro time-kill assays at free peak and free trough concentrations; type: cell-based, Staphylococcus aureus
Experimental: Viable cell count was determined by serial dilution plating, including the use of 25 g/L charcoal suspension to limit antibiotic carryover. […] Time-kill assays were repeated at least twice independently; results presented are from a representative experiment.
Doubling dilution concentrations of comparator agents were likewise chosen to approximate their fCmax and fCmin levels in plasma when administered at approved dosages for complicated skin and skin structure infections, using pharmacokinetic data and protein binding values from their respective package inserts (DAP [Cubicin®]; LZD [Zyvox®]; VAN [Vancocin®]; Table 3).

[3] = SOLO II Phase 3 trial, safety; type: in vivo, human
Source text: Safety profiles, measured at any point up to 60 days after treatment, were similar across treatment groups in SOLO II.

[4] = SOLO I Phase 3 trial, safety assessments (safety population); type: in vivo, human
Source text: The study design was consistent with current guidelines from FDA (U.S. Food and Drug Administration. Guidance for Industry Acute Bacterial Skin and Skin Structure Infections: Developing Drugs for Treatment (DRAFT GUIDANCE). Available via Internet at the URL containing: fda.gov/downloads/Drugs/GuidanceComplianceRegulatoryInformation/Guidances/ucm071185.p df) and EMA (European Medicines Agency Committee for Medicinal Products for Human Use. Addendum to the note for guidance on evaluation of medicinal products indicated for treatment of bacterial infections (CHMP/EWP/558/95 REV 2) to address indication-specific clinical data (draft). 2012. Available via Internet at the URL containing: ema.europa.eu/docs/en_GB/document_library/Scientific_guideline/2012/07/WC500129443.pdf) and Foundation for National Institutes of Health guidance was considered for analyses (Talbot G H etl. Clin Infect Dis. 2012. 55(8):1114-1121). The protocol was approved by institutional review boards/ethics committees and all patients provided written informed consent. The study was conducted from January 2011 through October 2012 at 46 study centers in Mexico, Spain, Germany, Romania, Russia, Ukraine, Israel, India, and the United States. […] Aztreonam and metronidazole were permitted for gram-negative and anaerobic cover, respectively.
Safety assessments (Safety Population) included vital signs, electrocardiogram (ECG), clinical chemistry and hematology parameters, reporting of adverse events (AEs) and serious adverse events (SAEs). Treatment-emergent adverse events (TEAEs) were defined as AEs with onset or worsening severity at or after the first dose of study drug through the Safety Follow-up Visit (Day 60+7 days).
For safety assessments, descriptive analyses were performed in the safety population for all safety parameters by treatment group.
The intent-to-treat (ITT) population included all patients randomized into the study. The modified intent-to-treat (mITT) was the primary population for all the efficacy analyses and included all randomized patients who received any study drug. The clinically evaluable (CE) population consisted of all mITT patients who met the inclusion/exclusion criteria, received the full-course of randomized study treatment (for a minimum of 7 days), and had investigator assessment for clinical cure at PTE. The CE population was used to confirm the efficacy analyses. The microbiologically ITT (MicroITT) population consisted of all mITT patients with baseline gram-positive pathogen(s) known to cause ABSSSI and it was used for the secondary efficacy analyses. The microbiologically evaluable (MicroE) population was used to confirm the secondary efficacy analyses and consisted of all patients who were in both the MicroITT and CE populations. The safety population was the primary population for all the safety analyses, and consisted of all patients who were dosed with study drug, irrespective of randomization. Treatment classification was based on the actual treatment received.

[5] = cited from earlier work
[6] = confirmed MRSA, Microbiological ITT, ECE
[7] = confirmed MRSA, Microbiological ITT, ECE, oritavancin n = 100, vancomycin n = 101
[8] = mITT, ECE, oritavancin n = 503, vancomycin n = 502
[9] = mITT, ECE, oritavancin vs vancomycin

CN[C@H](CC(C)C)C(=O)N[C@H]1C(=O)N[C@@H](CC(N)=O)C(=O)N[C@H]2C(=O)N[C@H]3C(=O)N[C@H](C(=O)N[C@H](C(=O)O)c4cc(O)cc(O)c4-c4cc3ccc4O)[C@H](O[C@H]3C[C@](C)(N)[C@@H](O)[C@H](C)O3)c3ccc(c(Cl)c3)Oc3cc2cc(c3O[C@@H]2O[C@H](CO)[C@@H](O)[C@H](O)[C@H]2O[C@H]2C[C@](C)(NCc3ccc(-c4ccc(Cl)cc4)cc3)[C@@H](O)[C@H](C)O2)Oc2ccc(cc2Cl)[C@H]1O [Oritavancin, N^DISACC-(4-(4-chlorophenyl)benzyl)A82846B]
Efficacy versus vancomycin for ECE and PTE endpoints [1]: non-inferior to vancomycin
FDA primary endpoint: Cessation of spread, absence of fever, no rescue antibiotics [1, 6]: 82.0%
≧20% reduction of lesion area [1, 6]: 96.0%
FDA primary endpoint: Cessation of spread, absence of fever, no rescue antibiotics, number of patients [1, 7]: 82
≧20% reduction of lesion area, number of patients [1, 7]: 96
EMA primary endpoint: Investigator-assessed clinical cure ([1]; confirmed MRSA, Microbiological ITT, PTE): 84.0%
EMA primary endpoint: Investigator-assessed clinical cure, number of patients ([1]; confirmed MRSA, Microbiological ITT, PTE, oritavancin n = 100, vancomycin n = 101): 84
FDA primary endpoint: Cessation of spread, absence of fever, no rescue antibiotics ([1]; mITT, ECE): 80.1%
≧20% reduction of lesion area ([1]; mITT, ECE): 85.9%
FDA primary endpoint: Cessation of spread, absence of fever, no rescue antibiotics, number of patients [1, 8]: 403
≧20% reduction of lesion area, number of patients [1, 8]: 432
% Difference (95% CI), FDA primary endpoint [1, 9]: −2.7 (−7.5, 2.0) %
% Difference (95% CI), ≧20% reduction of lesion area [1, 9]: 0.6 (−3.7, 5.0) %
EMA primary endpoint: Investigator-assessed clinical cure ([1]; mITT, PTE): 82.7%
EMA primary endpoint: Investigator-assessed clinical cure, number of patients ([1]; mITT, PTE, oritavancin n = 503, vancomycin n = 502): 416
% Difference (95% CI), investigator-assessed clinical cure ([1]; mITT, PTE, oritavancin vs vancomycin): 2.2 (−2.6, 7.0) %
Time to cidality (≧3 log decrease) ([2]; 57147 (mecC), oritavancin ƒCmax 16 mg/L): 5-10 min
Time to cidality (≧3 log decrease) ([2]; 57147 (mecC), oritavancin ƒCmin 2 mg/L): 5-10 min
Time to cidality (≧3 log decrease) ([2]; 70611 (mecC), oritavancin ƒCmax 16 mg/L): ≦5 min
Time to cidality (≧3 log decrease) ([2]; 70611 (mecC), oritavancin ƒCmin 2 mg/L): 5-10 min
Time to cidality (≧3 log decrease) ([2]; 73348 (mecC), oritavancin ƒCmax 16 mg/L): 5-10 min
Time to cidality (≧3 log decrease) ([2]; 73348 (mecC), oritavancin ƒCmin 2 mg/L): 5-10 min
Time to cidality (≧3 log decrease) ([2]; 73415 (mecC), oritavancin ƒCmax 16 mg/L): 5-10 min
Time to cidality (≧3 log decrease) ([2]; 73415 (mecC), oritavancin ƒCmin 2 mg/L): 5-10 min
Time to cidality (≧3 log decrease) ([2]; 73617 (mecC), oritavancin ƒCmax 16 mg/L): 5-10 min
Time to cidality (≧3 log decrease) ([2]; 73617 (mecC), oritavancin ƒCmin 2 mg/L): 10-15 min
Time to cidality (≧3 log decrease) ([2]; 73829 (mecC), oritavancin ƒCmax 16 mg/L): ≦5 min
Time to cidality (≧3 log decrease) ([2]; 73829 (mecC), oritavancin ƒCmin 2 mg/L): 5-10 min
Time to cidality (≧3 log decrease) ([2]; 75814 (mecC), oritavancin ƒCmax 16 mg/L): ≦5 min
Time to cidality (≧3 log decrease) ([2]; 75814 (mecC), oritavancin ƒCmin 2 mg/L): 5-10 min
Time to cidality (≧3 log decrease) ([2]; 76918 (mecC), oritavancin ƒCmax 16 mg/L): 5-10 min
Time to cidality (≧3 log decrease) ([2]; 76918 (mecC), oritavancin ƒCmin 2 mg/L): 5-10 min
Time to cidality (≧3 log decrease) ([2]; 77431 (mecC), oritavancin ƒCmax 16 mg/L): ≦5 min
Time to cidality (≧3 log decrease) ([2]; 77431 (mecC), oritavancin ƒCmin 2 mg/L): 5-10 min
Time to cidality (≧3 log decrease) ([2]; 77601 (mecC), oritavancin ƒCmax 16 mg/L): ≦5 min
Time to cidality (≧3 log decrease) ([2]; 77601 (mecC), oritavancin ƒCmin 2 mg/L): 5-10 min
Time to cidality (≧3 log decrease) ([2]; 77950 (mecC), oritavancin ƒCmax 16 mg/L): ≦5 min
Time to cidality (≧3 log decrease) ([2]; 77950 (mecC), oritavancin ƒCmin 2 mg/L): 5-10 min
Time to cidality (≧3 log decrease) ([2]; 77964 (mecC), oritavancin ƒCmax 16 mg/L): ≦5 min
Time to cidality (≧3 log decrease) ([2]; 77964 (mecC), oritavancin ƒCmin 2 mg/L): 5-10 min
Time to cidality (≧3 log decrease) ([2]; 78085 (mecC), oritavancin ƒCmax 16 mg/L): 5-10 min
Time to cidality (≧3 log decrease) ([2]; 78085 (mecC), oritavancin ƒCmin 2 mg/L): 10-15 min
Time to cidality (≧3 log decrease) ([2]; 78651 (mecC), oritavancin ƒCmax 16 mg/L): 5-10 min
Time to cidality (≧3 log decrease) ([2]; 78651 (mecC), oritavancin ƒCmin 2 mg/L): 10-15 min
Time to cidality (≧3 log decrease) ([2]; ATCC 29213 (MSSA), oritavancin ƒCmax 16 mg/L): 5-10 min
Time to cidality (≧3 log decrease) ([2]; ATCC 29213 (MSSA), oritavancin ƒCmin 2 mg/L): 10-15 min
Time to cidality (≧3 log decrease) ([2]; ATCC 33591 (mecA), oritavancin ƒCmax 16 mg/L): 5-10 min
Time to cidality (≧3 log decrease) ([2]; ATCC 33591 (mecA), oritavancin ƒCmin 2 mg/L): 10-15 min
Time to cidality (≧3 log decrease) ([2]; ATCC 43300 (mecA), oritavancin ƒCmax 16 mg/L): 5-10 min
Time to cidality (≧3 log decrease) ([2]; ATCC 43300 (mecA), oritavancin ƒCmin 2 mg/L): 5-10 min
Treatment emergent adverse events considered by investigators as related to study drug [3]: 21.7%
Patients reported to experience at least one adverse event ([3]; up to 60 days after treatment): 50.9%
Cellulitis SAEs considered new events [4]: 2
Discontinuation of study drug due to cellulitis [4]: 2 patients
Frequency of SAEs [4]: 7.4%
Histamine-like reactions (Red Man syndrome) [4]: No histamine-like reactions occurred
Proportion of patients experiencing a TEAE that led to discontinuation of the study drug [4]: 3.8%
Skin and subcutaneous tissue adverse events [4]: 11.6%
Patients who died during the study ([4]; all determined unrelated to study drug): one
Infusion site reaction AEs ([4]; post-hoc analysis): 4.0%
Pruritus AEs ([4]; post-hoc analysis): 3.4%
Incidence of diarrhea ([4]; safety population): 4.9%
Incidence of headache ([4]; safety population): 7.2%
Incidence of nausea ([4]; safety population): 11.0%
Incidence of vomiting ([4]; safety population): 4.9%
Overall safety and tolerability ([4]; single 1200 mg dose): safe and well-tolerated
Free Fraction ([5]; protein binding values from Arhin et al., 2010 (oritavancin) and package inserts (comparators)): 0.15
Protein binding ([5]; serum from nonclinical species and humans (Arhin et al., 2010)): approximately 85%
